# Reference: ChEMBL document CHEMBL1150459, “The -iodoethoxyl group: a stable unit for radioiodination” (Bioorg Med Chem Lett, 1994)
# What was measured:
# Mus musculus [1] = assay: Biodistribution of [123I]- labeled compound in mice heart was determined after 30 sec of administration; expressed in percent of injected dose per gram of organ; type: ADME, organism-based; conditions: in vivo, 0.5 min
# Mus musculus [2] = assay: Biodistribution of [123I]- labeled compound in mice heart was determined after 5 min of administration; expressed in percent of injected dose per gram of organ; type: ADME, organism-based; conditions: in vivo
# Mus musculus [3] = assay: Biodistribution of [123I]- labeled compound in mice kidneys was determined after 1 min of administration; expressed in percent of injected dose per gram of organ; type: ADME, organism-based, Kidney; conditions: in vivo
# Mus musculus [4] = assay: Biodistribution of [123I]- labeled compound in mice kidneys was determined after 10 min of administration; expressed in percent of injected dose per gram of organ; type: ADME, organism-based, Kidney; conditions: in vivo
# Mus musculus [5] = assay: Biodistribution of [123I]- labeled compound in mice lungs was determined after 15 sec of administration; expressed in percent of injected dose per gram of organ; type: ADME, organism-based, Lung; conditions: in vivo, 15 s
# Mus musculus [6] = assay: Biodistribution of [123I]- labeled compound in mice lungs was determined after 2 min of administration; expressed in percent of injected dose per gram of organ; type: ADME, organism-based, Lung; conditions: in vivo
# Mus musculus [7] = assay: Biodistribution of [123I]- labeled compound in mice lungs was determined after 30 sec of administration; expressed in percent of injected dose per gram of organ; type: ADME, organism-based, Lung; conditions: in vivo, 0.5 min
# Mus musculus [8] = assay: Biodistribution of [123I]- labeled compound in mice lungs was determined after 5 min of administration; expressed in percent of injected dose per gram of organ; type: ADME, organism-based, Lung; conditions: in vivo
# Mus musculus [9] = assay: Biodistribution of [123I]- labeled compound in mice kidneys was determined after 15 sec of administration; expressed in percent of injected dose per gram of organ; type: ADME, organism-based, Kidney; conditions: in vivo, 15 s
# Mus musculus [10] = assay: Biodistribution of [123I]- labeled compound in mice kidneys was determined after 2 min of administration; expressed in percent of injected dose per gram of organ; type: ADME, organism-based, Kidney; conditions: in vivo
# Mus musculus [11] = assay: Biodistribution of [123I]- labeled compound in mice kidneys was determined after 30 sec of administration; expressed in percent of injected dose per gram of organ; type: ADME, organism-based, Kidney; conditions: in vivo, 0.5 min
# Mus musculus [12] = assay: Biodistribution of [123I]- labeled compound in mice kidneys was determined after 5 min of administration; expressed in percent of injected dose per gram of organ; type: ADME, organism-based, Kidney; conditions: in vivo
# Mus musculus [13] = assay: Biodistribution of [123I]- labeled compound in mice liver was determined after 1 min of administration; expressed in percent of injected dose per gram of organ; type: ADME, organism-based; conditions: in vivo
# Mus musculus [14] = assay: Biodistribution of [123I]- labeled compound in mice liver was determined after 10 min of administration; expressed in percent of injected dose per gram of organ; type: ADME, organism-based; conditions: in vivo
# Mus musculus [15] = assay: Biodistribution of [123I]- labeled compound in mice liver was determined after 15 sec of administration; expressed in percent of injected dose per gram of organ; type: ADME, organism-based; conditions: in vivo, 15 s
# Mus musculus [16] = assay: Biodistribution of [123I]- labeled compound in mice liver was determined after 2 min of administration; expressed in percent of injected dose per gram of organ; type: ADME, organism-based; conditions: in vivo
# Mus musculus [17] = assay: Biodistribution of [123I]- labeled compound in mice liver was determined after 30 sec of administration; expressed in percent of injected dose per gram of organ; type: ADME, organism-based; conditions: in vivo, 0.5 min
# Mus musculus [18] = assay: Biodistribution of [123I]- labeled compound in mice lungs was determined after 1 min of administration; expressed in percent of injected dose per gram of organ; type: ADME, organism-based, Lung; conditions: in vivo
# Mus musculus [19] = assay: Biodistribution of [123I]- labeled compound in mice lungs was determined after 10 min of administration; expressed in percent of injected dose per gram of organ; type: ADME, organism-based, Lung; conditions: in vivo
# Mus musculus [20] = assay: Biodistribution of [123I]- labeled compound in mice brain was determined after 1 min of administration; expressed in percent of injected dose per gram of organ; type: ADME, organism-based; conditions: in vivo
# Mus musculus [21] = assay: Biodistribution of [123I]- labeled compound in mice brain was determined after 10 min of administration; expressed in percent of injected dose per gram of organ; type: ADME, organism-based; conditions: in vivo
# Mus musculus [22] = assay: Biodistribution of [123I]- labeled compound in mice brain was determined after 2 min of administration; expressed in percent of injected dose per gram of organ; type: ADME, organism-based; conditions: in vivo
# Mus musculus [23] = assay: Biodistribution of [123I]- labeled compound in mice brain was determined after 30 sec of administration; expressed in percent of injected dose per gram of organ; type: ADME, organism-based; conditions: in vivo, 0.5 min
# Mus musculus [24] = assay: Biodistribution of [123I]- labeled compound in mice brain was determined after 5 min of administration; expressed in percent of injected dose per gram of organ; type: ADME, organism-based; conditions: in vivo
# Mus musculus [25] = assay: Biodistribution of [123I]- labeled compound in mice heart was determined after 10 min of administration; expressed in percent of injected dose per gram of organ; type: ADME, organism-based; conditions: in vivo
# Mus musculus [26] = assay: Biodistribution of [123I]- labeled compound in mice heart was determined after 15 sec of administration; expressed in percent of injected dose per gram of organ; type: ADME, organism-based; conditions: in vivo, 15 s
# Mus musculus [27] = assay: Biodistribution of [123I]- labeled compound in mice heart was determined after 1 min of administration; expressed in percent of injected dose per gram of organ; type: ADME, organism-based; conditions: in vivo
# Mus musculus [28] = assay: Biodistribution of [123I]- labeled compound in mice heart was determined after 2 min of administration; expressed in percent of injected dose per gram of organ; type: ADME, organism-based; conditions: in vivo
# Mus musculus [29] = assay: Biodistribution of [123I]- labeled compound in mice liver was determined after 5 min of administration; expressed in percent of injected dose per gram of organ; type: ADME, organism-based; conditions: in vivo
# Mus musculus [30] = assay: Biodistribution of [123I]- labeled compound in mice brain was determined after 15 sec of administration; expressed in percent of injected dose per gram of organ; type: ADME, organism-based; conditions: in vivo, 15 s
compound,measurement,setting,value
O=C(O)CCOCCI,Biodistribution,Mus musculus [1],7.9%
same,Biodistribution,Mus musculus [2],4.2%
same,Biodistribution,Mus musculus [3],9%
same,Biodistribution,Mus musculus [4],12.7%
same,Biodistribution,Mus musculus [5],18.4%
same,Biodistribution,Mus musculus [6],10.9%
same,Biodistribution,Mus musculus [7],12.6%
same,Biodistribution,Mus musculus [8],8.8%
same,Biodistribution,Mus musculus [9],8.6%
same,Biodistribution,Mus musculus [10],11.3%
same,Biodistribution,Mus musculus [11],8.8%
same,Biodistribution,Mus musculus [12],13.2%
same,Biodistribution,Mus musculus [13],7.8%
same,Biodistribution,Mus musculus [14],7.1%
same,Biodistribution,Mus musculus [15],2.3%
same,Biodistribution,Mus musculus [16],8.5%
same,Biodistribution,Mus musculus [17],5.5%
same,Biodistribution,Mus musculus [18],12%
same,Biodistribution,Mus musculus [19],6.5%
same,Biodistribution,Mus musculus [20],4.7%
same,Biodistribution,Mus musculus [21],1.6%
same,Biodistribution,Mus musculus [22],4.1%
same,Biodistribution,Mus musculus [23],5.1%
same,Biodistribution,Mus musculus [24],2.4%
same,Biodistribution,Mus musculus [25],3.2%
same,Biodistribution,Mus musculus [26],17.8%
same,Biodistribution,Mus musculus [27],6.2%
same,Biodistribution,Mus musculus [28],5.3%
same,Biodistribution,Mus musculus [29],9.9%
same,Biodistribution,Mus musculus [30],5.5%
